Patent US20230059124A1, “Novel TAS2R38 Bitter Taste Receptor Agonist” (priority 2021, published 2023)

Columns and labels:
TAS2R38 gene [1] = experiment: DNA microarray gene expression, MatTek full thickness tissue (EFT-200); format: cell-based, Homo sapiens; conditions: 0.05 ml solubilized xanthohumol liquid formulation 5 mg/ml, 48 hours; ratio >=1.3 = up-regulated
Source text: The testing model used in this study is the MatTek full thickness tissue (EFT-200). This skin model consists of normal human-derived epidermal keratinocytes that have been cultured to form a multilayered, highly differentiated model of the human epidermis and human fibroblasts that have been seeded into a collagen matrix to form the dermis. This model also introduces a well-defined basement membrane between the epidermal and dermal layers, which is essential to enable in vivo like interactions between the keratinocytes and the fibroblasts.
Upon arrival, the MatTek ET-200 tissue was stored at 4° C. until used (they can be stored for up to 72 hours however tissue viability may decrease with prolonged storage). Prior to use, the tissues to be used were removed from the agarose-shipping tray and placed into a 6-well plate containing 2.0 ml of assay medium (37±2° C.). All of the agarose must be removed from the outside of the tissue culture insert since any residual agarose may prevent the assay medium from reaching the tissue. […]
At the end of the incubation any residual test material was removed from the tissues by rinsing them twice with at least 100 μl of PBS. […] These broader ranges are a more conservative judging criterion and account for possible sources of variation in fluorescence intensity that are not associated with the treatment. […]

TAS2R38 gene [2] = experiment: qPCR TAS2R38 gene expression in hTBEC 1 culture; format: cell-based, human; conditions: for Tas2R38 3prime 2^-ddct / Tas2R38 5prime 2^-ddct / Tas2R38C DS 2^-ddct / Tas2R38 3prime ddCT / Tas2R38 5prime ddCT / Tas2R38C DS ddCT: 1 μM; for Tas2R38 3prime 2^-ddct / Tas2R38 5prime 2^-ddct / Tas2R38C DS 2^-ddct: control = 1.000
Source text: (§1) Currently, very little is known about compounds that directly agonize and regulate TAS2R38 expression. Because of this, research related to the prenylflavonoid xanthohumol's effects on gene expression was compared with other TAS2R38 targeting compounds, namely sinigrin, a glucosinolate connected to the family of glucosides found in the Brassicaceae vegetable family and found in foods such as brussels sprouts and broccoli. […] selectively triggers the taster variant of the TAS2R38 receptor (Meyerhof, W. et al. The Molecular Receptive Ranges of Human TAS2R Bitter Taste Receptors. Chem Sense (2010) 35: 157-70.) […] was used as a comparator at a concentration of 1 the same concentration as xanthohumol (1 μM). Two hTBEC cultures were selected for this initial study. hTBEC 1 is derived from one of the most bitter-responsive cultures, which has a moderate/moderately low basal gene expression level of TAS2R38. hTBEC 2 is derived from a culture that responds to bitter stimuli, but has a high response in particular to TAS2R38 expression compared with other hTBEC repositories. RNA was harvested from cultures treated cultures and control cultures at 1 μM lead compound at 24 and 48 hours post treatment. Following is a table that explains the experimental paradigm in full: [table] In an effort to establishing a comprehensive understanding of xanthohumol's effects on gene expression, 3 unique primer pairs to accurately capture the TAS2R38 gene were developed as cultures. […] The published NCBI genetic sequence for the region of chromosome 7q that encodes TAS2R38 and overlay map the SNP variant markers to ensure the primers cover strategic regions of the TAS2R38 gene. For probing TAS2R38, 3 individual primer pairs were used for a comprehensive view of how the compound may be “hitting” the gene.

TAS2R38 gene [3] = experiment: qPCR TAS2R38 gene expression in hTBEC 2 culture; format: cell-based, human; conditions: 1 μM; for Tas2R38 3prime 2^-ddct / Tas2R38 5prime 2^-ddct / Tas2R38C DS 2^-ddct: control = 1.000
Source text: as §1

[4] = hTBEC 1, 24 hour, vs control 24
[5] = hTBEC 1, 48 hour, vs control 48 hour
[6] = hTBEC 2, 24 hour, vs control 24
[7] = hTBEC 2, 48 hour, vs control 48 hour

SMILES | Tas2R38 3prime 2^-ddct (TAS2R38 gene [2]; hTBEC 1, 24 hour) | Tas2R38 5prime 2^-ddct (TAS2R38 gene [2]; hTBEC 1, 24 hour) | Tas2R38C DS 2^-ddct (TAS2R38 gene [2]; hTBEC 1, 24 hour) | Tas2R38 3prime ddCT (TAS2R38 gene [2]; [4]) | Tas2R38 5prime ddCT (TAS2R38 gene [2]; [4]) | Tas2R38C DS ddCT (TAS2R38 gene [2]; [4]) | Tas2R38 3prime 2^-ddct (TAS2R38 gene [2]; hTBEC 1, 48 hour) | Tas2R38 5prime 2^-ddct (TAS2R38 gene [2]; hTBEC 1, 48 hour) | Tas2R38C DS 2^-ddct (TAS2R38 gene [2]; hTBEC 1, 48 hour) | Tas2R38 3prime ddCT (TAS2R38 gene [2]; [5]) | Tas2R38 5prime ddCT (TAS2R38 gene [2]; [5]) | Tas2R38C DS ddCT (TAS2R38 gene [2]; [5]) | Tas2R38 3prime 2^-ddct (TAS2R38 gene [3]; hTBEC 2, 24 hour) | Tas2R38 5prime 2^-ddct (TAS2R38 gene [3]; hTBEC 2, 24 hour) | Tas2R38C DS 2^-ddct (TAS2R38 gene [3]; hTBEC 2, 24 hour) | Tas2R38 3prime ddCT (TAS2R38 gene [3]; [6]) | Tas2R38 5prime ddCT (TAS2R38 gene [3]; [6]) | Tas2R38C DS ddCT (TAS2R38 gene [3]; [6]) | Tas2R38 3prime 2^-ddct (TAS2R38 gene [3]; hTBEC 2, 48 hour) | Tas2R38 5prime 2^-ddct (TAS2R38 gene [3]; hTBEC 2, 48 hour) | also measured
COc1cc(O)c(CC=C(C)C)c(O)c1C(=O)/C=C/c1ccc(O)cc1 [xanthohumol] | 2.024 | 3.983 | 2.785 | −1.017 | −1.994 | −1.478 | 0.664 | 1.368 | 4.109 | 0.591 | −0.452 | −2.039 | 2.013 | 2.609 | 1.779 | −1.009 | −1.383 | −0.831 | 0.995 | 0.624 | Ratio of Medians, TAS2R38 (NM_176817) up-regulation (TAS2R38 gene [1]): 21; up regulation of the TAS2R38 gene, higher than baseline or the Sinigrin control (TAS2R38 gene [2]; FIG. 1, 1 μM, within 24 hours, culture not stated): approximately 4 ×; Tas2R38C DS 2^-ddct (TAS2R38 gene [3]; hTBEC 2, 48 hour): 4.175; Tas2R38 3prime ddCT (TAS2R38 gene [3]; [7]): 0.007; Tas2R38 5prime ddCT (TAS2R38 gene [3]; [7]): 0.679; Tas2R38C DS ddCT (TAS2R38 gene [3]; [7]): −2.062
C=CCC(=NOS(=O)(=O)O)S[C@@H]1O[C@H](CO)[C@@H](O)[C@H](O)[C@H]1O (stereo in doubt) [sinigrin, reference compound] | 0.988 | 1.142 | 1.023 | 0.017 | −0.192 | −0.033 | 0.983 | 1.027 | 1.716 | 0.025 | −0.038 | −0.779 | 0.600 | 0.553 | 0.657 | 0.736 | 0.616 | 0.605 | 1.436 | 1.317 | Tas2R38C DS 2^-ddct (TAS2R38 gene [3]; hTBEC 2, 48 hour): 0.625; Tas2R38 3prime ddCT (TAS2R38 gene [3]; [7]): −0.524; Tas2R38 5prime ddCT (TAS2R38 gene [3]; [7]): −0.397; Tas2R38C DS ddCT (TAS2R38 gene [3]; [7]): 0.677
